Test results as given in patent publication US8940739B2, “Compound of a reverse-turn mimetic and a production method and use therefor” (JW Pharmaceutical Corporation, priority 2010, dated 2015).

Test system: MV-4-11 (human, Acute Myeloid Leukemia cell line) cells
Assay: Cell growth inhibition assay, GI50 of MV-4-11
Assay type: cell-based
Details: Homo sapiens, MV4-11, 72 h, MV-4-11 cells
Protocol: The anti-proliferative activity (cell growth inhibition assay) of the compounds according to the present invention against AML (Acute Myeloid Leukemia) cancer cells was measured. […] The lower the GI50 value, the higher the anti-proliferative activity.
A cell growth Inhibition assay was performed to investigate the rate of inhibition of cell proliferation by the compounds of the present invention. MV-4-11 (human, Acute Myeloid Leukemia cell line) cells were cultured in Iscove's modified Dulbecco's medium (IMDM) including 10% fetal bovine serum (FBS), 1× penicillin/streptomycin (10,000 units/ml Penicillin, […] Streptomycin in 0.85% NaCl). MV-4-11 cells were harvested with the IMDM and 5×10^4 cells/well were transferred to each well of 96-well culture plates (Nunc, #167008).
The compounds of Examples 1 to 5 were exposed to serial dilution and duplicated for each concentration. For the serial dilution, the compounds of the present invention were repeatedly diluted with the same volume of media onto 96-well assay block (costar, #3956). After the dilution, each compound was added to each well.
Also, the background absorbance was measured during the treatment with the test compounds by replacing the test compound with IMDM in the negative control plate. The plates were incubated for three days (72 hours) at 37 in the humidified incubator containing 5% CO2. On the last day, 20 µl of a CellTiter 96 Aqueous One Solution (Promega #G3581) was added to the culture in each well and the plates were incubated for a few hours at 37 in the humidified incubator containing 5% CO2. After the incubation, the absorbance of each cell was measured at 490 nm using an EnVision (Perkinelmer, USA).
The GI50 values were calculated using a Prism 3.0 program.

`C=CCN1CC(=O)N2[C@@H](Cc3ccc(O)cc3)C(=O)N(Cc3cccc4c(-c5ccc(NC(=O)N6CCC(N(C)C)CC6)cc5)cn(C)c34)C[C@@H]2N1C(=O)NCc1ccccc1` [Compound D-65] and `C=CCN1CC(=O)N2[C@@H](Cc3ccc(O)cc3)C(=O)N(Cc3cccc4c(-c5ccc(NC(=O)C6CCN(C)CC6)cc5)cn(C)c34)C[C@@H]2N1C(=O)NCc1ccccc1` [Compound D-62] are the same in GI50: 1.3 nM for the first, 1.3 nM for the second.

Compared with `C=CCN1CC(=O)N2[C@@H](Cc3ccc(O)cc3)C(=O)N(Cc3cccc4c(-c5cccc(C(=O)N6CCC(O)CC6)c5)cn(C)c34)C[C@@H]2N1C(=O)NCc1ccccc1` [Compound D-6], `C=CCN1CC(=O)N2[C@@H](Cc3ccc(O)cc3)C(=O)N(Cc3cccc4c(-c5cccc(C(=O)NC6CCCCC6)c5)cn(C)c34)C[C@@H]2N1C(=O)NCc1ccccc1` [Compound D-9] is 1.9-fold higher in GI50: 1.7 nM for the first, 3.3 nM for the second.

`C=CCN1CC(=O)N2[C@@H](Cc3ccc(O)cc3)C(=O)N(Cc3cccc4c(-c5ccc(NC(=O)N6CCC(N7CCOCC7)CC6)cc5)cn(C)c34)C[C@@H]2N1C(=O)NCc1ccccc1` [Compound D-64] and `C=CCN1CC(=O)N2[C@@H](Cc3ccc(O)cc3)C(=O)N(Cc3cccc4c(-c5ccc(NC(=O)N6CC(N7CCOCC7)C6)cc5)cn(C)c34)C[C@@H]2N1C(=O)NCc1ccccc1` [Compound D-66] are within 1.5-fold of each other in GI50: 1.2 nM for the first, 1.3 nM for the second.

Going from `C=CCN1CC(=O)N2[C@@H](Cc3ccc(O)cc3)C(=O)N(Cc3cccc4c(-c5ccc(NC(=O)NC6CCCCC6)nc5)cn(C)c34)C[C@@H]2N1C(=O)NCc1ccccc1` [Compound D-92] to `C=CCN1CC(=O)N2[C@@H](Cc3ccc(O)cc3)C(=O)N(Cc3cccc4c(-c5ccc(NC(=O)NC(C)C)nc5)cn(C)c34)C[C@@H]2N1C(=O)NCc1ccccc1` [Compound D-99], the GI50 falls from 19 nM to 2.7 nM (7-fold).

Going from `C=CCN1CC(=O)N2[C@@H](Cc3ccc(O)cc3)C(=O)N(Cc3cccc4c(-c5ccc(C(=O)N6CCN(C)CC6)o5)cn(C)c34)C[C@@H]2N1C(=O)NCc1ccccc1` [Compound D-105] to `C=CCN1CC(=O)N2[C@@H](Cc3ccc(O)cc3)C(=O)N(Cc3cccc4c(-c5ccc(C(=O)NC6CCN(C)CC6)o5)cn(C)c34)C[C@@H]2N1C(=O)NCc1ccccc1` [Compound D-103], the GI50 rises from 3.7 nM to 10.8 nM (2.9-fold).

`C=CCN1CC(=O)N2[C@@H](Cc3ccc(O)cc3)C(=O)N(Cc3cccc4c(-c5ccc(NC(=O)NC6CCN(C(C)=O)CC6)cc5)cn(C)c34)C[C@@H]2N1C(=O)NCc1ccccc1` [Compound D-84] and `C=CCN1CC(=O)N2[C@@H](Cc3ccc(O)cc3)C(=O)N(Cc3cccc4c(-c5ccc(NC(=O)C6CCN(C(C)=O)CC6)nc5)cn(C)c34)C[C@@H]2N1C(=O)NCc1ccccc1` [Compound D-89] are within 1.5-fold of each other in GI50: 1.7 nM for the first, 1.3 nM for the second.

First: C=CCN1CC(=O)N2[C@@H](Cc3ccc(O)cc3)C(=O)N(Cc3cccc4c(C(=O)N5CCC(NC(=O)OC(C)(C)C)CC5)cn(C)c34)C[C@@H]2N1C(=O)NCc1ccccc1 [Compound E-56]
Second: C=CCN1CC(=O)N2[C@@H](Cc3ccc(O)cc3)C(=O)N(Cc3cccc4c(C(=O)N5CCN(C(=O)OC(C)(C)C)CC5)cn(C)c34)C[C@@H]2N1C(=O)NCc1ccccc1 [Compound E-1]
The GI50 of the first is 1.9-fold lower: 3.1 nM for the first, 5.8 nM for the second.

`C=CCN1CC(=O)N2C(CN(Cc3cccc4c(C(=O)Nc5ccc(N)cc5)cn(C)c34)C(=O)[C@@H]2Cc2ccc(O)cc2)N1C(=O)NCc1ccccc1` (stereo partly drawn) [Compound G-8] and `C=CCN1CC(=O)N2C(CN(Cc3cccc4c(C(=O)Nc5ccc(O)cc5)cn(C)c34)C(=O)[C@@H]2Cc2ccc(O)cc2)N1C(=O)NCc1ccccc1` (stereo partly drawn) [Compound G-2] are within 1.5-fold of each other in GI50: 7.4 nM for the first, 8 nM for the second.

Going from `C=CCN1CC(=O)N2[C@@H](Cc3ccc(O)cc3)C(=O)N(Cc3cccc4c(C(=O)N5CCN(C6CCCC6)CC5)cn(C)c34)C[C@@H]2N1C(=O)NCc1ccccc1` [Compound E-18] to `C=CCN1CC(=O)N2[C@@H](Cc3ccc(O)cc3)C(=O)N(Cc3cccc4c(C(=O)N5CCN6CCN(CC7CCCCC7)CC6C5)cn(C)c34)C[C@@H]2N1C(=O)NCc1ccccc1` (stereo partly drawn) [Compound E-46], the GI50 falls from 20.9 nM to 2 nM (10-fold).

Going from `C=CCN1CC(=O)N2[C@@H](Cc3ccc(O)cc3)C(=O)N(Cc3cccc4c(-c5ccc(C(=O)NNCc6ccccc6)cc5)cn(C)c34)C[C@@H]2N1C(=O)NCc1ccccc1` [Compound D-38] to `C=CCN1CC(=O)N2[C@@H](Cc3ccc(O)cc3)C(=O)N(Cc3cccc4c(-c5ccc(C(=O)NNC)cc5)cn(C)c34)C[C@@H]2N1C(=O)NCc1ccccc1` [Compound D-33], the GI50 falls from 3.2 nM to 1.4 nM (2.3-fold).

Going from `C=CCN1CC(=O)N2[C@@H](Cc3ccc(O)cc3)C(=O)N(Cc3cccc4c(-c5ccc(NC(=O)Nc6ccc(OC)cc6)nc5)cn(C)c34)C[C@@H]2N1C(=O)NCc1ccccc1` [Compound D-86] to `C=CCN1CC(=O)N2[C@@H](Cc3ccc(O)cc3)C(=O)N(Cc3cccc4c(-c5ccc(NC(=O)c6ccc(CN(C)C)cc6)cc5)cn(C)c34)C[C@@H]2N1C(=O)NCc1ccccc1` [Compound D-54], the GI50 falls from 4.9 nM to 1.2 nM (4.1-fold).

`C=CCN1CC(=O)N2[C@@H](Cc3ccc(O)cc3)C(=O)N(Cc3cccc4c(C(=O)N(C)Cc5ccncc5)cn(C)c34)C[C@@H]2N1C(=O)NCc1ccccc1` [Compound F-40] and `C=CCN1CC(=O)N2[C@@H](Cc3ccc(O)cc3)C(=O)N(Cc3cccc4c(C(=O)N(C)Cc5cccnc5)cn(C)c34)C[C@@H]2N1C(=O)NCc1ccccc1` [Compound F-41] are within 1.5-fold of each other in GI50: 17.2 nM for the first, 11.6 nM for the second.

`C=CCN1CC(=O)N2[C@@H](Cc3ccc(O)cc3)C(=O)N(Cc3cccc4c(C(=O)N(C)Cc5ccc(N(C)C)cc5)cn(C)c34)C[C@@H]2N1C(=O)NCc1ccccc1` [Compound F-46] and `C=CCN1CC(=O)N2[C@@H](Cc3ccc(O)cc3)C(=O)N(Cc3cccc4c(C(=O)N(C)Cc5cccc(C)n5)cn(C)c34)C[C@@H]2N1C(=O)NCc1ccccc1` [Compound F-45] are within 1.5-fold of each other in GI50: 1.3 nM for the first, 1.7 nM for the second.

Going from `C=CCN1CC(=O)N2[C@@H](Cc3ccc(O)cc3)C(=O)N(Cc3cccc4c(C(=O)NCc5ccccn5)cn(C)c34)C[C@@H]2N1C(=O)NCc1ccccc1` [Compound F-42] to `C=CCN1CC(=O)N2[C@@H](Cc3ccc(O)cc3)C(=O)N(Cc3cccc4c(C(=O)N(C)Cc5ccccn5)cn(C)c34)C[C@@H]2N1C(=O)NCc1ccccc1` [Compound F-43], the GI50 rises from 9.1 nM to 17.8 nM (2-fold).

First: C=CCN1CC(=O)N2[C@@H](Cc3ccc(O)cc3)C(=O)N(Cc3cccc4c(-c5ccc(C(=O)NNC(C)C)cc5)cn(C)c34)C[C@@H]2N1C(=O)NCc1ccccc1 [Compound D-35]
Second: C=CCN1CC(=O)N2[C@@H](Cc3ccc(O)cc3)C(=O)N(Cc3cccc4c(-c5ccc(C(N)=O)cc5)cn(C)c34)C[C@@H]2N1C(=O)NCc1ccccc1 [Compound D-7]
The GI50 of the first is 12-fold higher: 15 nM for the first, 1.2 nM for the second.

`C=CCN1CC(=O)N2[C@@H](Cc3ccc(O)cc3)C(=O)N(Cc3cccc4c(-c5ccc(C(=O)NC6CCC(N)CC6)cc5)cn(C)c34)C[C@@H]2N1C(=O)NCc1ccccc1` (stereo partly drawn) [Compound D-30] and `C=CCN1CC(=O)N2[C@@H](Cc3ccc(O)cc3)C(=O)N(Cc3cccc4c(-c5ccc(C(=O)NCCN(C)C)cc5)cn(C)c34)C[C@@H]2N1C(=O)NCc1ccccc1` [Compound D-39] are within 1.5-fold of each other in GI50: 1.5 nM for the first, 1.2 nM for the second.

`C=CCN1CC(=O)N2C(CN(Cc3cccc4c(C(=O)Nc5ccc(N6CCC(N7CCOCC7)CC6)nc5)cn(C)c34)C(=O)[C@@H]2Cc2ccc(O)cc2)N1C(=O)NCc1ccccc1` (stereo partly drawn) [Compound G-56] and `C=CCN1CC(=O)N2C(Cc3ccc(O)cc3)C(=O)N(Cc3cccc4c(C(=O)Nc5ccc(NCC)nc5)cn(C)c34)CC2N1C(=O)NCc1ccccc1` (stereo not drawn) [Compound G-16] are within 1.5-fold of each other in GI50: 1.3 nM for the first, 1.7 nM for the second.

Going from `C=CCN1CC(=O)N2[C@@H](Cc3ccc(O)cc3)C(=O)N(Cc3cccc4c(-c5ccc(NC(=O)CCCN)cc5)cn(C)c34)C[C@@H]2N1C(=O)NCc1ccccc1` [Compound D-70] to `C=CCN1CC(=O)N2[C@@H](Cc3ccc(O)cc3)C(=O)N(Cc3cccc4c(-c5ccc(C(=O)NNCC(F)(F)F)cc5)cn(C)c34)C[C@@H]2N1C(=O)NCc1ccccc1` [Compound D-37], the GI50 falls from 4.4 nM to 1.3 nM (3.4-fold).

First: C=CCN1CC(=O)N2[C@@H](Cc3ccc(O)cc3)C(=O)N(Cc3cccc4c(C(=O)N5CCN(Cc6ccc(C)cc6)CC5)cn(C)c34)C[C@@H]2N1C(=O)NCc1ccccc1 [Compound E-27]
Second: C=CCN1CC(=O)N2[C@@H](Cc3ccc(O)cc3)C(=O)N(Cc3cccc4c(C(=O)N5CCN(Cc6cccc(OC)c6)CC5)cn(C)c34)C[C@@H]2N1C(=O)NCc1ccccc1 [Compound E-35]
The GI50 of the first is 2.6-fold higher: 13.5 nM for the first, 5.1 nM for the second.

Going from `C=CCN1CC(=O)N2[C@@H](Cc3ccc(O)cc3)C(=O)N(Cc3cccc4c(C(=O)N5CCN(c6ccc(O)cc6)CC5)cn(C)c34)C[C@@H]2N1C(=O)NCc1ccccc1` [Compound E-40] to `C=CCN1CC(=O)N2[C@@H](Cc3ccc(O)cc3)C(=O)N(Cc3cccc4c(C(=O)N(C)CCCN5CCN(C)CC5)cn(C)c34)C[C@@H]2N1C(=O)NCc1ccccc1` [Compound F-31], the GI50 falls from 15.4 nM to 1.9 nM (8.1-fold).

In the case of `C=CCN1CC(=O)N2C(Cc3ccc(O)cc3)C(=O)N(Cc3cccc4c(C(=O)Nc5ccc(N(C)CC(C)C)nc5)cn(C)c34)CC2N1C(=O)NCc1ccccc1` (stereo not drawn) [Compound G-17], the GI50 is reported as 2 nM.

Same assay, conditions: MV-4-11 cells, 72 hours; read-out: MV4-11 GI50

`C=CCN1CC(=O)N2[C@@H](Cc3ccc(O)cc3)C(=O)N(Cc3cccc4c(C(=O)N5CCN(Cc6ccccn6)CC5)cn(C)c34)C[C@@H]2N1C(=O)NCc1ccccc1` [Compound E-29] was tested, and the GI50 was 18.4 nM.
